One experiment concerns the target T1, human NHE3 (Homo sapiens, UniProt P48764).
T1 sequence (P48764 26-834): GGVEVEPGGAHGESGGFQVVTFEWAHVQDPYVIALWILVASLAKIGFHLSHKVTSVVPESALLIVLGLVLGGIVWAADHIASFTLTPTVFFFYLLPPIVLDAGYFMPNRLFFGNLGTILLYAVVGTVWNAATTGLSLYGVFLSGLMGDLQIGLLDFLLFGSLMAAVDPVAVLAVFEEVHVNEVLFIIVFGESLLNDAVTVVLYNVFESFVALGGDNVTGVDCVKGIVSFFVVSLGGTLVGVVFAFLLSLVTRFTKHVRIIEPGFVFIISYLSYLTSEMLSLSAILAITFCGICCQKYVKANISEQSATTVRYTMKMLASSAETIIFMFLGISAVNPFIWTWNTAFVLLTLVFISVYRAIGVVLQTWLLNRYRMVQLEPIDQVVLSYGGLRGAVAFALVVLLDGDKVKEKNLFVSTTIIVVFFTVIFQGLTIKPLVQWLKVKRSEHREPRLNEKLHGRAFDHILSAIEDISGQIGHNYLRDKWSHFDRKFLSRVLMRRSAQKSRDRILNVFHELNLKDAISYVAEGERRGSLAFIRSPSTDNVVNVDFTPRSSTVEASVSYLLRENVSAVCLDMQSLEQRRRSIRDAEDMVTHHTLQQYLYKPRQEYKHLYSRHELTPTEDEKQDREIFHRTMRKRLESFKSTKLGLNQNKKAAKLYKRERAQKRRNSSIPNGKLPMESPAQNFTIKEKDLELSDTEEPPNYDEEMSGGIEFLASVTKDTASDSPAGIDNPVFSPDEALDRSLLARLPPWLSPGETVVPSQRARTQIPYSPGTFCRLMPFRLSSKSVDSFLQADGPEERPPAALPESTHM
Nature of the experiment: NHE3 inhibition test (recovery of intracellular pH in cell line stably expressing human NHE3). In kind it is cell-based. Conditions: OK cells deficient in endogenous NHE stably expressing human NHE3; BCECF fluorescence, initial rate of pH recovery; read-out: human NHE3 inhibitory activity IC50. The gist of the method:
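Opossum kidney cells lacking endogenous NHE, stably expressing human NHE3, loaded with BCECF-AM and acid-loaded by NH4Cl washout. Compound in Na-free buffer, then Na-containing buffer (pH 7.4) added; initial pH-recovery rate by BCECF fluorescence, IC50 versus no-compound recovery.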

In a further experiment the test system is SD rat. Nature of the experiment: 32P-phosphate oral loading test using SD rat (phosphorus absorption inhibitory effect). In kind it is in vivo. The note with it: SD male rats, plasma radioactivity 30 minutes after 32P-phosphate solution, vs control group. Here is the method: Phosphorus Absorption Inhibitory Effect of the Compound of the Present Invention in ^32P-Phosphate Oral Loading Test Using SD Rat
8-week-old SD male rats (Japan SLC, Inc.) were used as laboratory animals. Each test compound was suspended or dissolved at a concentration of 0.2 mg/mL or 0.6 mg/mL in Japanese Pharmacopoeia water for injection (manufactured by Hikari Pharmaceutical Co., Ltd.) and orally administered to each rat at a dose of 5 ml/kg body weight. Japanese Pharmacopoeia water for injection was administered at the same dose as above to a control group. 5 minutes after the administration of the test compound or water for injection, a phosphate solution (1.3 mM NaH2PO4) containing 32P-phosphate (PerkinElmer Inc.) was administered thereto at a dose of 5 ml/kg. 30 minutes after the administration of the phosphate solution, blood was collected from the tail vein, and the blood sample was immediately mixed with EDTA-2K (manufactured by Dojindo Laboratories). Then, the mixture was centrifuged at 3000 rpm at 4° C. for 10 minutes to recover plasma.
The radioactivity in 100 μL of the plasma was measured using a liquid scintillation counter and used as a phosphate absorption count. The radioactivity in the plasma of the control group was used as a control, and the rate of inhibition of phosphate absorption was determined according to the following expression: Rate of inhibition of phosphate absorption (%)=(1−Phosphate absorption count of the test compound administration group/Phosphate absorption count of the control group)×100 (2) Results

Setting [1] is: Rattus norvegicus, 0.5 h, oral dose 3 mg/kg, read-out: Rate of inhibition of phosphate absorption.

Molecules are shown by their SMILES. pIC50: −log10 of the molar value. Counter-ions that a name gives are not always drawn.

The pIC50 is the negative decadic logarithm of the IC50, by convention in mol/L.

Consider `CN1Cc2c(Cl)cc(Cl)cc2[C@H](c2cccc(-c3cc(NCCOCCOCCOCCNC(=O)NCCCCNC(=O)NCCOCCOCCOCCNc4cc(-c5cccc([C@@H]6CN(C)Cc7c(Cl)cc(Cl)cc76)c5)ncn4)ncn3)c2)C1` [Example 7-40, 1,1′-Butane-1,4-diylbis(3-{2-[2-(2-{2-[(6-{3-[(4S)-6,8-dichloro-2-methyl-1,2,3,4-tetrahydroisoquinolin-4-yl]phenyl}pyrimidin-4-yl)amino]ethoxy}ethoxy)ethoxy]ethyl}urea) trifluoroacetate], for which, on human NHE3, the pIC50 is 7.96. In addition, the inhibition in vivo at 3 mg/kg with SD rat (setting [1]) amounted to 28%.
For the compound `CN1Cc2c(Cl)cc(Cl)cc2[C@H](c2cccc(-c3cn(CCOCCOCCOCCNC(=O)NCCN(CCCCN(CCNC(=O)NCCOCCOCCOCCn4cc(-c5cccc([C@@H]6CN(C)Cc7c(Cl)cc(Cl)cc76)c5)nn4)C(N)=O)C(N)=O)nn3)c2)C1.O=CO` [Example 7-42, 3,3′-Butane-1,4-diylbis {3-[16-(4-{3-[(4S)-6,8-dichloro-2-methyl-1,2,3,4-tetrahydroisoquinolin-4-yl]phenyl}-1H-1,2,3-triazol-1-yl)-4-oxo-8,11,14-trioxa-3,5-diazahexadec-1-yl]urea}formate], the pIC50 at human NHE3 is 8.26. In the experiment with SD rat (oral dose 3 mg/kg), the “Rate of inhibition of phosphate absorption” value was determined as 29%.
As for `CN1Cc2c(Cl)cc(Cl)cc2[C@H](c2cccc(-c3cn(CCOCCOCCOCCOCCNC(=O)NCCOCCOCCOCCOCCn4cc(-c5cccc([C@@H]6CN(C)Cc7c(Cl)cc(Cl)cc76)c5)nn4)nn3)c2)C1` [Example 7-43, 1,3-Bis[14-(4-{3-[(4S)-6,8-dichloro-2-methyl-1,2,3,4-tetrahydroisoquinolin-4-yl]phenyl}-1H-1,2,3-triazol-1-yl)-3,6,9,12-tetraoxatetradec-1-yl]urea hydrochloride], the pIC50 on human NHE3 was 8.07. For the same compound, in the experiment with SD rat (setting [1]), the inhibition in vivo at 3 mg/kg stood at 37%.
As for `CN1Cc2c(Cl)cc(Cl)cc2[C@H](c2cccc(-c3cn(CCOCCOCCOCCOCCNC(=O)Nc4ccc(NC(=O)NCCOCCOCCOCCOCCn5cc(-c6cccc([C@@H]7CN(C)Cc8c(Cl)cc(Cl)cc87)c6)nn5)cc4)nn3)c2)C1` [Example 7-45, 1,1′-Benzene-1,4-diylbis {3-[14-(4-{3-[(4S)-6,8-dichloro-2-methyl-1,2,3,4-tetrahydroisoquinolin-4-yl]phenyl}-1H-1,2,3-triazol-1-yl)-3,6,9,12-tetraoxatetradec-1-yl]urea}hydrochloride], at human NHE3, the pIC50 was 8.24. The inhibition in vivo at 3 mg/kg in the experiment on SD rat (setting [1]) stood at 29%.
Take `CN1Cc2c(Cl)cc(Cl)cc2[C@H](c2cccc(-c3cn(CCOCCOCCOCCOCCOCCNC(=O)Nc4ccc(NC(=O)NCCOCCOCCOCCOCCOCCn5cc(-c6cccc([C@@H]7CN(C)Cc8c(Cl)cc(Cl)cc87)c6)nn5)cc4)nn3)c2)C1` [Example 7-46, 1,1′-Benzene-1,4-diylbis {3-[17-(4-{3-[(4S)-6,8-dichloro-2-methyl-1,2,3,4-tetrahydroisoquinolin-4-yl]phenyl}-1H-1,2,3-triazol-1-yl)-3,6,9,12,15-pentaoxaheptadec-1-yl]urea}hydrochloride]: the pIC50 on human NHE3 was 7.96. Further, the inhibition in vivo at 3 mg/kg in the experiment on SD rat (setting [1]) came out at 23%.
In the case of `CN1Cc2c(Cl)cc(Cl)cc2[C@H](c2cccc(-c3cncc(NCCOCCOCCNC(=O)CCC(=O)NCCOCCOCCNc4cncc(-c5cccc([C@@H]6CN(C)Cc7c(Cl)cc(Cl)cc76)c5)n4)n3)c2)C1` [Example 8-6, N,N′-Bis[2-(2-{2-[(6-{3-[(4S)-6,8-dichloro-2-methyl-1,2,3,4-tetrahydroisoquinolin-4-yl]phenyl}pyrazin-2-yl)amino]ethoxy}ethoxy)ethyl]butanediamide pentahydrochloride], the pIC50 at human NHE3 is 7.81. Also, in the experiment on SD rat (setting [1]), the inhibition in vivo at 3 mg/kg amounted to 26%.
As for `CN1Cc2c(Cl)cc(Cl)cc2[C@H](c2cccc(-c3cc(NCCOCCOCCNC(=O)[C@H](O)[C@@H](O)C(=O)NCCOCCOCCNc4cc(-c5cccc([C@@H]6CN(C)Cc7c(Cl)cc(Cl)cc76)c5)ncn4)ncn3)c2)C1` [Example 8-8, (2R,3R)-N,N′-Bis[2-(2-{2-[(6-{3-[(4S)-6,8-dichloro-2-methyl-1,2,3,4-tetrahydroisoquinolin-4-yl]phenyl}pyrimidin-4-yl)amino]ethoxy}ethoxy)ethyl]-2,3-dihydroxybutanediamide hydrochloride], the pIC50 on human NHE3 is 8.21. Besides, the inhibition in vivo at 3 mg/kg in the experiment with SD rat (setting [1]) was 39%.
For `CN1Cc2c(Cl)cc(Cl)cc2[C@H](c2cccc(-c3cc(NCCOCCOCCOCCNC(=O)CCC(=O)NCCOCCOCCOCCNc4cc(-c5cccc([C@@H]6CN(C)Cc7c(Cl)cc(Cl)cc76)c5)ncn4)ncn3)c2)C1` [Example 8-12, N,N′-Bis{2-[2-(2-{2-[(6-{3-[(4S)-6,8-dichloro-2-methyl-1,2,3,4-tetrahydroisoquinolin-4-yl]phenyl}pyrimidin-4-yl)amino]ethoxy}ethoxy)ethoxy]ethyl}butanediamide hydrochloride], at human NHE3, the pIC50 is 8.21. In the experiment with SD rat (setting [1]), the inhibition in vivo at 3 mg/kg turned out to be 6%.
For the compound `CN1Cc2c(Cl)cc(Cl)cc2C(c2cccc(-c3cnnc(NCCOCCOCCNC(=O)C(O)C(O)C(=O)NCCOCCOCCNc4cc(-c5cccc(C6CN(C)Cc7c(Cl)cc(Cl)cc76)c5)cnn4)c3)c2)C1` [Example 8-14, (2R,3R)-N-[2-(2-{2-[(5-{3-[(4R)-6,8-Dichloro-2-methyl-1,2,3,4-tetrahydroisoquinolin-4-yl]phenyl}pyridazin-3-yl)amino]ethoxy}ethoxy)ethyl]-N′-[2-(2-{2-[(5-{3-[(4S)-6,8-dichloro-2-methyl-1,2,3,4-tetrahydroisoquinolin-4-yl]phenyl}pyridazin-3-yl)amino]ethoxy}ethoxy)ethyl]-2,3-dihydroxybutanamide tetrahydrochloride], the pIC50 on human NHE3 was 8.04. Moreover, the inhibition in vivo at 1 mg/kg with SD rat (Rattus norvegicus, 0.5 h, oral dose 1 mg/kg, read-out: Rate of inhibition of phosphate absorption) stood at 46%.
On to `CN1Cc2c(Cl)cc(Cl)cc2[C@H](c2cccc(-c3cc(OCCOCCOCCNC(=O)[C@H](O)[C@@H](O)C(=O)NCCOCCOCCOc4cc(-c5cccc([C@@H]6CN(C)Cc7c(Cl)cc(Cl)cc76)c5)ncn4)ncn3)c2)C1` [Example 8-16, (2R,3R)-N,N′-Bis[2-(2-{2-[(6-{3-[(4S)-6,8-dichloro-2-methyl-1,2,3,4-tetrahydroisoquinolin-4-yl]phenyl}pyrimidin-4-yl)oxy]ethoxy}ethoxy)ethyl]-2,3-dihydroxybutanediamide hydrochloride], for which the pIC50 on human NHE3 is 8.12. Further, the inhibition in vivo at 3 mg/kg in the experiment on SD rat (setting [1]) is 31%.
As to `CN1Cc2c(Cl)cc(Cl)cc2[C@H](c2cccc(-c3cc(OCCOCCOCCOCCNC(=O)[C@H](O)[C@@H](O)C(=O)NCCOCCOCCOCCOc4cc(-c5cccc([C@@H]6CN(C)Cc7c(Cl)cc(Cl)cc76)c5)ncn4)ncn3)c2)C1` [Example 8-17, (2R,3R)-N,N′-Bis{2-[2-(2-{2-[(6-{3-[(4S)-6,8-dichloro-2-methyl-1,2,3,4-tetrahydroisoquinolin-4-yl]phenyl}pyrimidin-4-yl)oxy]ethoxy}ethoxy)ethoxy]ethyl}-2,3-dihydroxybutanediamide hydrochloride], the pIC50 on human NHE3 was 8.60. The inhibition in vivo at 3 mg/kg in the experiment with SD rat (setting [1]) turned out to be 18%.

The record behind these values is patent US9932331B2, “Phenyl tetrahydroisoquinoline compound substituted with heteroaryl” (TAISHO PHARMACEUTICAL CO., LTD, priority 2014, dated 2018).
